Assay results taken from publication PMC9301488, “Expression, Characterization, Fermentation, Immobilization, and Application of a Novel Esterase Est804 From Metagenomic Library in Pesticide Degradation” (Frontiers in Microbiology, 2022).

Tested on: T1, Est804
T1 construct: expressed in E. coli BL21(DE3); lysate supernatant called crude, His-tag purification described for SDS-PAGE
Assay: release of p-nitrophenol at […] nm, Lineweaver-Burk plot
Type: biochemical, soil metagenome
Settings: free enzyme; 0.0-5.0 mM substrate; Britton-Robinson buffer pH 6.8, 40 °C (standard conditions); crude lysate supernatant mentioned, purity of the kinetic sample not clear

CC(=O)Oc1ccc([N+](=O)[O-])cc1 [ρ-nitrophenyl acetate]
Km: 613 µM
